Values of other authors in US20130165526A1, “TOPICAL TREATMENT WITH DAPSONE IN G6PD-DEFICIENT PATIENTS” (ALLERGAN, INC., priority 2007, published 2013).

Tested on: P. acnes
Conditions: Godowski et al., 2000

SMILES: Nc1ccc(S(=O)(=O)c2ccc(N)cc2)cc1 [Dapsone, bis(4-aminophenyl)sulfone]
- Minimum inhibitory concentration: about 1 microgram per milliliter
